Laboratory results: patent publication US20140271831A1, “RACECADOTRIL LIQUID COMPOSITIONS” (McNeil-PPC, Inc., priority 2013, published 2014)

How the values were obtained:
[1] = cited from earlier work
[2] = Stability of Racecadotril in Water; format: physicochemical
Method: For comparative purposes, the stability of racecadotril was tested at room temperature and at 40° C. • 1. Pipet 1 mL of Racecadotril solution into a 100 mL volumetric flask (V.F.) • 2. Dilute to volume with the same buffer used in the solution preparation. • 3. […] Parameters may be modified to optimize chromatography. • The assay of Racecadotril is determined by using the external standard injected. The degradation products levels are determined by % peak area relative to the Racecadotril peak. [table] [table] Mobil Phase A: Phosphate buffer, pH 2.5 (Buffer prep: dissolve 1 g of potassium dihydrogen phosphate in water, adjust to pH 2.5 with phosphoric acid, dilute to 1000 mL with water) Mobil Phase B: 100% Acetonitrile

SMILES: CC(=O)SCC(Cc1ccccc1)C(=O)NCC(=O)OCc1ccccc1 (racemic) [Racecadotril]
- water solubility [1]: low water solubility
- Racecadotril (%) in Water at 40° C. ([2]; 1 Week): 0%
- Racecadotril (%) in Water at Room Temperature ([2]; 1 Week): 1.0%
- Racecadotril (%) in Water at 40° C. ([2]; 2 Weeks): 0.2%
- Racecadotril (%) in Water at Room Temperature ([2]; 2 Weeks): 0.0%
- Racecadotril (%) in Water at Room Temperature ([2]; 12 Hours): 44.9%
- Racecadotril (%) in Water at 40° C. ([2]; Initial): 78.88%
- Racecadotril (%) in Water at Room Temperature ([2]; Initial): 74.88%
- racecadotril present ([2]; in water, at 1 week): less than 1%
- stability of racecadotril in water ([2]; room temperature and 40° C., after 12 hours): unstable
